The results in this text go back to patent US8044236B2, “Carboxilic acid derivatives” (Institute of Medicinal Molecular Design, Inc., priority 2006, dated 2011).

The test has as its target recombinant human PAI-1 (Homo sapiens, UniProt P05121). In words: Test Example 1: human PAI-1 inhibitory activity (tPA fluorogenic substrate, pH7.5 Tris buffer). It counts as biochemical. More on the design: purchased Molecular Innovations, Inc. The following applies: for Inhibition Rate of Human PAI-1 Activity (%): Tris buffer pH7.5.
The mark [1] stands for this setting: pH 7.5, read-out: Inhibition Rate of Human PAI-1 Activity (%).

Where a name gives a salt, the structure may show the parent alone.

Chain of recombinant human PAI-1 (P05121 24-402): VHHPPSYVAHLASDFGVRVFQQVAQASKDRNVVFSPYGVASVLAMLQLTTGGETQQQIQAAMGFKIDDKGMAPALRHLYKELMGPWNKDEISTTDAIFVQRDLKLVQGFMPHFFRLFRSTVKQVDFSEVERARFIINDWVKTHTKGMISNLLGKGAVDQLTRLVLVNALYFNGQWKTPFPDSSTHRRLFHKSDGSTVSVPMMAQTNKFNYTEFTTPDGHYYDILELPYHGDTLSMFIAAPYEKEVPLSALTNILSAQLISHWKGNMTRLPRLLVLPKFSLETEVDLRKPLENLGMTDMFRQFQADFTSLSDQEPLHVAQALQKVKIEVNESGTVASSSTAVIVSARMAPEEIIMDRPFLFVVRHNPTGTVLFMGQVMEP
Method: In a 96-well multiplate (black), 1.5 μl of DMSO solution of the present application compound prepared to achieve 80-fold the test concentration (=the final concentration when fluorogenic substrate is added) was diluted with 52.5 μl of pH7.5 Tris buffer. […] Furthermore, 30 μl of 800 IU/ml two-chain tPA (Activity Standard; American diagnostics, inc.) prepared by Tris buffer was added, and the mixed solution was incubated for 15 minutes at room temperature. To this, 30 μl of 400 μM fluorogenic substrate (Pyr-Gly-Arg-MCA; Peptide Institute, Inc.) for tPA prepared by Tris buffer was added and reacted for 30 minutes at room temperature.
<Composition of pH7.5 Tris Buffer)

Regarding `O=C(O)Cc1cc(-c2ccc(OC(F)(F)F)cc2)ccc1OCc1ccccc1` [Compound 1, [4-benzyloxy-4′-(trifluoromethoxy)biphenyl-3-yl]acetic acid], the “Inhibition Rate of Human PAI-1 Activity (%)” value (from here on “Inhibition Rate … (%)”) was determined as 18% (compound 5 μM) and 31% (compound 10 μM).
One may read the inhibition as the drop in the measured response relative to a control, in per cent. Regarding `O=C(O)/C=C/c1cc(-c2ccc(OC(F)(F)F)cc2)ccc1OCc1ccccc1` [Compound 2, (E)-3-[4-benzyloxy-4′-(trifluoromethoxy)biphenyl-3-yl]propenoic acid], under setting [1], the inhibition at 5 µM amounted to 35% and the inhibition at 10 µM was 31%.
Consider `O=C(O)CCc1cc(-c2ccc(OC(F)(F)F)cc2)ccc1OCc1ccccc1` [Compound 3, 3-[4-benzyloxy-4′-(trifluoromethoxy)biphenyl-3-yl]propanoic acid], for which the “Inhibition Rate … (%)” value is given as 35% (compound 5 μM) and 68% (compound 10 μM).
For `CC(C)(C)c1ccc(COc2ccc(-c3ccc(OC(F)(F)F)cc3)cc2/C=C/C(=O)O)cc1` [Compound 4, (E)-3-{4-[4-(tert-butyl)benzyloxy]-4′-(trifluoromethoxy)biphenyl-3-yl}propenoic acid] the same measures were 84% and 78%.
Consider `CC(C)(C)c1ccc(COc2ccc(-c3ccc(OC(F)(F)F)cc3)cc2NC(=O)C(=O)O)cc1` [Compound 6, N-{4-[4-(tert-butyl)benzyloxy]-4′-(trifluoromethoxy)biphenyl-3-yl}oxamic acid sodium salt], for which the “Inhibition Rate … (%)” value by setting is: (compound 5 μM) 83%; (compound 10 μM) 94%.
For `CC(C)(C)c1ccc(Oc2ccc(-c3ccc(OC(F)(F)F)cc3)cc2/C=C\C(=O)O)cc1` [Compound 12, (Z)-3-{4-[4-(tert-butyl)phenoxy]-4′-(trifluoromethoxy)biphenyl-3-yl}propenoic acid] the same measures were 92% and 94%.
For the compound `O=C(O)CCc1cc(-c2ccc(OC(F)(F)F)cc2)ccc1Oc1ccc(C(=O)O)cc1` [Compound 15, 3-[4-(4-carboxyphenoxy)-4′-(trifluoromethoxy)biphenyl-3-yl]propanoic acid], the “Inhibition Rate … (%)” value (compound 10 μM) is 3%.
In the case of `CN(C(=O)C(=O)O)c1cc(-c2ccc(OC(F)(F)F)cc2)ccc1OCc1ccc(C(C)(C)C)cc1` [Compound 18, N-{4-[4-(tert-butyl)benzyloxy]-4′-(trifluoromethoxy)biphenyl-3-yl}-N-methyloxamic acid], the “Inhibition Rate … (%)” value reads like this: (compound 5 μM) 37%; (compound 10 μM) 67%; (compound 25 μM) 97%.
For `O=C(O)CCc1cc(-c2ccc(OC(F)(F)F)cc2)ccc1OCc1ccc(C(F)(F)F)cc1` [Compound 26, 3-{4′-(trifluoromethoxy)-4-[4-(trifluoromethyl)benzyloxy]biphenyl-3-yl}propanoic acid], the “Inhibition Rate … (%)” value was 13% (compound 10 μM) and 80% (compound 25 μM).
For `COc1ccccc1COc1ccc(-c2ccc(OC(F)(F)F)cc2)cc1CCC(=O)O` [Compound 28, 3-[4-(2-methoxybenzyloxy)-4′-(trifluoromethoxy)biphenyl-3-yl]propanoic acid] the same measures were 7% and 47%.
Taken in the same sequence, the figures for `O=C(O)/C=C\c1cc(-c2ccc(OC(F)(F)F)cc2)ccc1OCc1ccccc1` [Compound 29, (Z)-3-[4-benzyloxy-4′-(trifluoromethoxy)biphenyl-3-yl]propenoic acid] were 11% and 64%.
For `CC(C)(C)c1ccc(COc2ccc(-c3ccc(OC(F)(F)F)cc3)cc2/C=C\C(=O)O)cc1` [Compound 30, (Z)-3-{4-[4-(tert-butyl)benzyloxy]-4′-(trifluoromethoxy)biphenyl-3-yl}propenoic acid], the “Inhibition Rate … (%)” value runs as follows: (compound 5 μM) 96%; (compound 10 μM) 97%; (compound 25 μM) 93%.
For the compound `CC(C)(C)c1ccc(COc2ccc(-c3cccc(C(=O)O)c3)cc2CCC(=O)O)cc1` [Compound 31, 3-{4-[4-(tert-butyl)benzyloxy]-3′-carboxybiphenyl-3-yl}propanoic acid], the “Inhibition Rate … (%)” value (compound 10 μM) is listed as 9% and the “Inhibition Rate … (%)” value (compound 25 μM) came out at 25%.
Consider `O=C(O)CCc1cc(-c2ccc(OC(F)(F)F)cc2)ccc1OCc1ccc(Cl)cc1Cl` [Compound 32, 3-[4-(2,4-dichlorobenzyloxy)-4′-(trifluoromethoxy)biphenyl-3-yl]propanoic acid], for which the “Inhibition Rate … (%)” value by setting is: (compound 5 μM) 5%; (compound 10 μM) 29%; (compound 25 μM) 92%.
On to `CCCCc1ccc(COc2ccc(-c3ccc(OC(F)(F)F)cc3)cc2CCC(=O)O)cc1` [Compound 35, 3-[4-(4-butylbenzyloxy)-4′-(trifluoromethoxy)biphenyl-3-yl]propanoic acid], for which, for the setting “compound 25 μM”, the “Inhibition Rate … (%)” value was greater than 99%.
For the compound `CC(C)(C)c1ccc(COc2ccc(-c3ccccc3)cc2/C=C/C(=O)O)cc1` [Compound 36, (E)-3-{4-[4-(tert-butyl)benzyloxy]biphenyl-3-yl}propenoic acid], the “Inhibition Rate … (%)” value is, setting by setting: (compound 5 μM) 21%; (compound 10 μM) 49%; (compound 25 μM) 89%.
Taken in the same sequence, the figures for `CC(C)(C)c1ccc(COc2ccc(-c3ccccc3)cc2CCC(=O)O)cc1` [Compound 37, 3-{4-[4-(tert-butyl)benzyloxy]biphenyl-3-yl}propanoic acid] were 22%, 47% and 97%.
Taken in the same sequence, the figures for `CC(C)(C)c1ccc(COc2ccc(-c3ccc(F)cc3)cc2/C=C/C(=O)O)cc1` [Compound 38, (E)-3-{4-[4-(tert-butyl)benzyloxy]-4′-fluorobiphenyl-3-yl}propenoic acid] were 23%, 53% and 96%.
Taken in the same sequence, the figures for `CC(C)(C)c1ccc(COc2ccc(-c3ccc(F)cc3)cc2CCC(=O)O)cc1` [Compound 39, 3-{4-[4-(tert-butyl)benzyloxy]-4′-fluorobiphenyl-3-yl}propanoic acid] were 24%, 53% and 99%.
As for `CC(C)(C)c1ccc(COc2ccc(-c3ccc(C(F)(F)F)cc3)cc2/C=C/C(=O)O)cc1` [Compound 40, (E)-3-{4-[4-(tert-butyl)benzyloxy]-4′-(trifluoromethyl)biphenyl-3-yl}propenoic acid], the “Inhibition Rate … (%)” value is listed as 28% (compound 5 μM), 57% (compound 10 μM) and 95% (compound 25 μM).
Take `CC(C)(C)c1ccc(COc2ccc(-c3ccc(C(F)(F)F)cc3)cc2CCC(=O)O)cc1` [Compound 41, 3-{4-[4-(tert-butyl)benzyloxy]-4′-(trifluoromethyl)biphenyl-3-yl}propanoic acid]: the “Inhibition Rate … (%)” value by setting is: (compound 5 μM) 23%; (compound 10 μM) 60%; (compound 25 μM) 99%.
For `COc1ccc(-c2ccc(OCc3ccc(C(C)(C)C)cc3)c(/C=C/C(=O)O)c2)cc1` [Compound 42, (E)-3-{4-[4-(tert-butyl)benzyloxy]-4′-methoxybiphenyl-3-yl}propenoic acid] the same measures were 23%, 47% and 84%.
For `COc1ccc(-c2ccc(OCc3ccc(C(C)(C)C)cc3)c(CCC(=O)O)c2)cc1` [Compound 43, 3-{4-[4-(tert-butyl)benzyloxy]-4′-methoxybiphenyl-3-yl}propanoic acid] the same measures were 14%, 34% and 93%.
Taken in the same sequence, the figures for `CC(C)(C)c1ccc(COc2ccc(-c3ccc(C(C)(C)C)cc3)cc2/C=C/C(=O)O)cc1` [Compound 44, (E)-3-{4′-(tert-butyl)-4-[4-(tert-butyl)benzyloxy]biphenyl-3-yl}propenoic acid] were 25%, 56% and 94%.
As to `CC(C)(C)c1ccc(COc2ccc(-c3ccc(C(C)(C)C)cc3)cc2CCC(=O)O)cc1` [Compound 45, 3-{4′-(tert-butyl)-4-[4-(tert-butyl)benzyloxy]biphenyl-3-yl}propanoic acid], the “Inhibition Rate … (%)” value (compound 5 μM) was 22%, the “Inhibition Rate … (%)” value (compound 10 μM) amounted to 66% and the “Inhibition Rate … (%)” value (compound 25 μM) is on record as greater than 99%.
Turning to `CCCCc1ccc(-c2ccc(OCc3ccc(C(C)(C)C)cc3)c(CCC(=O)O)c2)cc1` [Compound 48, 3-{4′-butyl-4-[4-(tert-butyl)benzyloxy]biphenyl-3-yl}propanoic acid], the “Inhibition Rate … (%)” value runs as follows: (compound 5 μM) 29%; (compound 10 μM) 66%; (compound 25 μM) 94%.
In the case of `CSc1ccc(-c2ccc(OCc3ccc(C(C)(C)C)cc3)c(/C=C/C(=O)O)c2)cc1` [Compound 49, (E)-3-{4-[4-(tert-butyl)benzyloxy]-4′-(methylsulfanyl)biphenyl-3-yl}propenoic acid], the “Inhibition Rate … (%)” value is recorded as 16% (compound 5 μM), 25% (compound 10 μM) and 21% (compound 25 μM).
For the compound `CC(C)(C)c1ccc(-c2ccc(OCc3ccccc3)c(/C=C/C(=O)O)c2)cc1` [Compound 52, (E)-3-[4-benzyloxy-4′-(tert-butyl)biphenyl-3-yl]propenoic acid], the “Inhibition Rate … (%)” value by setting is: (compound 5 μM) 22%; (compound 10 μM) 47%; (compound 25 μM) 91%.
